# Molecular target: ROCK2 (human) (UniProt O75116)
# Test: Inhibition of ROCK2 Kinase Activity
# Conditions: concentration not given here
# Chain of ROCK2 (human) (O75116 whole entry, looked up): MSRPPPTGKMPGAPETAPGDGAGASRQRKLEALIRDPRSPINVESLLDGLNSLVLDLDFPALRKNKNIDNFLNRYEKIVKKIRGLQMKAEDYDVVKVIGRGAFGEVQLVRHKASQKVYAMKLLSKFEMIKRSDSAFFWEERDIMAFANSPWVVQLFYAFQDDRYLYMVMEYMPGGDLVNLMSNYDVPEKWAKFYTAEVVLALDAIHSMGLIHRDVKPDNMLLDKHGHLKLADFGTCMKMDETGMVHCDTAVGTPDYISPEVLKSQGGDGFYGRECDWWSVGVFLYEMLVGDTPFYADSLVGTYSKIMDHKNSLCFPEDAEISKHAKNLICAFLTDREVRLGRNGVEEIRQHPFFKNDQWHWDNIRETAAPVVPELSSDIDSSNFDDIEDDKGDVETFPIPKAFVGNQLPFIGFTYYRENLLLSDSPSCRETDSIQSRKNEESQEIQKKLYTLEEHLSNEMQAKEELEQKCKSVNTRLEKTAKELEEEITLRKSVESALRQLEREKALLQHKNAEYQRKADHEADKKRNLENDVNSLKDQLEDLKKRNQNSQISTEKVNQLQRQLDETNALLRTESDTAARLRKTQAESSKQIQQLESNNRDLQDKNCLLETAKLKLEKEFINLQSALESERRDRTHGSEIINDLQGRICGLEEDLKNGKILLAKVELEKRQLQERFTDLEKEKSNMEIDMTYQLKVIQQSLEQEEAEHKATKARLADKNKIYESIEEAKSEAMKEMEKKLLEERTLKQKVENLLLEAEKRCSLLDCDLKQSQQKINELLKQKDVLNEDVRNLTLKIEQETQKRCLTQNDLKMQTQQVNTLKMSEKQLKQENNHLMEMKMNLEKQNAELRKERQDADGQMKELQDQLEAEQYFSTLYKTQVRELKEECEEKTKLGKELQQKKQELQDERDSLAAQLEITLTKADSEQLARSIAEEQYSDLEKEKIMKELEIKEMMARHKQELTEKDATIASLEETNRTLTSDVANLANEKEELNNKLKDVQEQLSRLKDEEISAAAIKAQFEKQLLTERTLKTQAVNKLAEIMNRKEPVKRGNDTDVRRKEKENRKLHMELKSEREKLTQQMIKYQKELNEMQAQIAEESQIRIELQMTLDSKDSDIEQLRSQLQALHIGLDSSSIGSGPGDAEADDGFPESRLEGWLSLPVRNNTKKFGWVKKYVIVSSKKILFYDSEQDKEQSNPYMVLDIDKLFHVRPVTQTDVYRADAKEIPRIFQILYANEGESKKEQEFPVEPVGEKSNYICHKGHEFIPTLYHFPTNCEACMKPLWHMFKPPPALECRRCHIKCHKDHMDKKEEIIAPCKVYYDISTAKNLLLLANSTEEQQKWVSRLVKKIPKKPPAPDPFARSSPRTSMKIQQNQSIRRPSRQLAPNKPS
row,inhibition [%],Compound
1,0,CSc1ccc(-c2nc3c(Sc4ccccc4)ncnc3n2C)cc1
2,0,Cn1c(-c2ccc([S+](C)[O-])cc2)nc2c(Sc3ccc(F)cc3)ncnc21 (centres undefined)
3,0,Nc1ncnc2c1ncn2Cc1ccc(F)cc1
4,0,Fc1ccc(Cn2cnc3c(Sc4ccc(F)cc4)ncnc32)cc1
5,0,Cn1cnc2c(/C=C/c3ccccc3)ncnc21
6,0,Cn1c(Br)nc2c(Sc3ccccc3)ncnc21
7,0,CSc1ccc(-c2nc3c(Sc4ccc(F)cc4)ncnc3n2C)cc1
8,0,Cn1c(-c2ccc(S(C)(=O)=O)cc2)nc2c(Sc3ccc(F)cc3)ncnc21
9,0,Cn1c(-c2ccccc2)nc2c(-c3ccc(F)cc3)ncnc21
10,0,Fc1ccc(Cn2cnc3c(Cl)ncnc32)cc1
11,0,Cn1cnc2c(Nc3ccccc3)ncnc21
12,22,C(=C\c1ncnc2[nH]cnc12)/c1ccccc1
13,0,c1ccc(-n2cnc3ncncc32)cc1
14,0,Cn1c(C#CCCO)nc2c(Sc3ccccc3)ncnc21

# From the Kinase Knowledgebase extract (Sharma et al. 2016)
